Converted amounts (≈) assume the structure as drawn. The source made the active and inactive calls. No cut-off for these calls is given here.

The first data set addresses T1, Interleukin-1 receptor-associated kinase 4 (Homo sapiens, UniProt Q9NWZ3).
T1 sequence (Q9NWZ3 whole entry): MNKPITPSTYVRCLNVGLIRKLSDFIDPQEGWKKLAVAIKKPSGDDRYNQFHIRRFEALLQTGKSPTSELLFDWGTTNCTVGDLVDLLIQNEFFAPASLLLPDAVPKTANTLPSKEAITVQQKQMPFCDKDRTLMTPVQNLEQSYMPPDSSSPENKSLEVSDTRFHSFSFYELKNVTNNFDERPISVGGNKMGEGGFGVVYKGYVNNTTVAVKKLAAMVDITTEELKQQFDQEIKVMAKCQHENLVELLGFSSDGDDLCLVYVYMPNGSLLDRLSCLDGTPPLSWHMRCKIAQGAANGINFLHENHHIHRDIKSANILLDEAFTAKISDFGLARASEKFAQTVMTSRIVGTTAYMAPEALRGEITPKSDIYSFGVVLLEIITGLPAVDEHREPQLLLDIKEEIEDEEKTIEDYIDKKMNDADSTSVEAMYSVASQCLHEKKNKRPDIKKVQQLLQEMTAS
Description: Inhibition of IRAK4-mediated NFkappaB activation in human THP1-XBlue cells assessed as LPS-induced secreted embryonic alkaline phosphatase activity treated 1 hr before LPS challenge measured after 5 hrs by spectrophotometer analysis. Format: cell-based, THP-1.
Settings: not given
For the compound `O=c1[nH]c(N2CCCC2)nc(N[C@@H]2C[C@H](CO)[C@@H](O)[C@H]2O)c1-c1nc2ccccc2s1`, the IC50 came out at 78 nM.
For `C[C@@H]1CC[C@@H](Nc2nc(N3CCOCC3)[nH]c(=O)c2-c2nc3ccccc3s2)CN1`, the IC50 was 580 nM.
Regarding `O=c1[nH]c(N2CCc3ccccc3C2)nc(N[C@@H]2C[C@H](CO)[C@@H](O)[C@H]2O)c1-c1nc2ccccc2s1`, the half-inhibitory concentration (IC50) was determined as 141 nM.
Take `O=c1[nH]c(N2CCOCC2)nc(N[C@H]2CNC[C@H](O)C2)c1-c1nc2ccccc2s1`: the IC50 came to 333 nM.
The same measure, in the same setting: next, `O=c1[nH]c(N2CCC2)nc(N[C@@H]2C[C@H](CO)[C@@H](O)[C@H]2O)c1-c1nc2ccccc2s1`: 292 nM.

System in another data set: not listed separately
The data set is described as follows: Oral bioavailability in Wistar Han rat at 10 mg/kg. Format: ADME, organism-based. As to conditions: in vivo.
Regarding `C[C@@H]1CC[C@@H](Nc2nc(N3CCOCC3)[nH]c(=O)c2-c2nc3ccccc3s2)CN1`, the bioavailability was 42%.
Same read-out and setting: next, `O=c1[nH]c(N2CCc3ccccc3C2)nc(N[C@@H]2C[C@H](CO)[C@@H](O)[C@H]2O)c1-c1nc2ccccc2s1`: 0%.
For `O=c1[nH]c(N2CCOCC2)nc(N[C@H]2CNC[C@H](O)C2)c1-c1nc2ccccc2s1`, the bioavailability worked out at 2%.
The compound `O=c1[nH]c(N2CCOCC2)nc(N[C@@H]2CCCNC2)c1-c1nc2ccccc2s1` came in with a bioavailability of 13%.
For the compound `O=c1[nH]c(N2CCC2)nc(N[C@@H]2C[C@H](CO)[C@@H](O)[C@H]2O)c1-c1nc2ccccc2s1`, the bioavailability worked out at 4%.
With `O=c1[nH]c(N2CCOCC2)nc(N[C@@H]2C[C@H](CO)[C@@H](O)[C@H]2O)c1-c1nc2ccccc2s1`, the bioavailability is 0%.

System in a further data set: not listed separately
Description: Kinetic solubility of the compound at pH 7. Format: physicochemical. The note with it: buffer.
Compound `O=c1[nH]c(N2CCCC2)nc(N[C@@H]2C[C@H](CO)[C@@H](O)[C@H]2O)c1-c1nc2ccccc2s1` returned a solubility (kinetic) of 26 µM (≈ 11.5 µg/mL).
In the case of `C[C@@H]1CC[C@@H](Nc2nc(N3CCOCC3)[nH]c(=O)c2-c2nc3ccccc3s2)CN1`, the solubility (kinetic) turned out to be 13 µM (≈ 5.55 µg/mL).
Same read-out and setting: next, `O=c1[nH]c(N2CCc3ccccc3C2)nc(N[C@@H]2C[C@H](CO)[C@@H](O)[C@H]2O)c1-c1nc2ccccc2s1`: 12 µM (≈ 6.07 µg/mL).
In turn, `O=c1[nH]c(N2CCOCC2)nc(N[C@H]2CNC[C@H](O)C2)c1-c1nc2ccccc2s1` displayed a kinetic solubility of 8 µM (≈ 3.43 µg/mL).
For `O=c1[nH]c(N2CCOCC2)nc(N[C@@H]2CCCNC2)c1-c1nc2ccccc2s1`, the kinetic solubility was found to be 21 µM (≈ 8.66 µg/mL).
Regarding `O=c1[nH]c(N2CCC2)nc(N[C@@H]2C[C@H](CO)[C@@H](O)[C@H]2O)c1-c1nc2ccccc2s1`, the solubility (kinetic) came out at 23 µM (≈ 9.88 µg/mL).
Turning to `O=c1[nH]c(N2CCOCC2)nc(N[C@@H]2C[C@H](CO)[C@@H](O)[C@H]2O)c1-c1nc2ccccc2s1`, the kinetic solubility stood at 63 µM (≈ 29 µg/mL).

System in the next data set: not listed separately
Description: Clearance in Wistar Han rat at 1 mg/kg, iv. The format is ADME, organism-based. As to conditions: in vivo.
Compound `C[C@@H]1CC[C@@H](Nc2nc(N3CCOCC3)[nH]c(=O)c2-c2nc3ccccc3s2)CN1` showed a clearance of 51 mL/min/kg.
For the compound `O=c1[nH]c(N2CCc3ccccc3C2)nc(N[C@@H]2C[C@H](CO)[C@@H](O)[C@H]2O)c1-c1nc2ccccc2s1`, the clearance is 88 mL/min/kg.
The compound `O=c1[nH]c(N2CCOCC2)nc(N[C@H]2CNC[C@H](O)C2)c1-c1nc2ccccc2s1` had a clearance of 43 mL/min/kg. Compared with the last compound, the clearance is about 2-fold lower.
On to `O=c1[nH]c(N2CCOCC2)nc(N[C@@H]2CCCNC2)c1-c1nc2ccccc2s1`, for which the clearance came to 45 mL/min/kg.
As for `O=c1[nH]c(N2CCC2)nc(N[C@@H]2C[C@H](CO)[C@@H](O)[C@H]2O)c1-c1nc2ccccc2s1`, the clearance stood at 75 mL/min/kg.
`O=c1[nH]c(N2CCOCC2)nc(N[C@@H]2C[C@H](CO)[C@@H](O)[C@H]2O)c1-c1nc2ccccc2s1` yielded a clearance of 98 mL/min/kg.

Another data set deals with T1, Interleukin-1 receptor-associated kinase 4. Description: Inhibition of IRAK4 (unknown origin) using 5FAM-RKRQGSVRRRVHCCOOH as substrate after 30 mins by IMAP assay.
Settings: not given
In turn, `CN(C)c1nc(N[C@@H]2C[C@H](CO)[C@@H](O)[C@H]2O)c(-c2nc3ccccc3s2)c(=O)[nH]1` yielded an IC50 of 490 nM.
Same read-out and setting: as for `C[C@H]1CC[C@@H](Nc2nc(N3CCOCC3)[nH]c(=O)c2-c2nc3ccccc3s2)CN1`, the figure is 565 nM.
Compound `C[C@@H]1CC[C@@H](Nc2nc(N3CCOCC3)[nH]c(=O)c2-c2nc3ccccc3s2)CN1` showed a half-maximal inhibitory concentration (IC50) of 93 nM.
Regarding `O=c1[nH]c(N2CCc3ccccc3C2)nc(N[C@@H]2C[C@H](CO)[C@@H](O)[C@H]2O)c1-c1nc2ccccc2s1`, the half-inhibitory concentration (IC50) came out at 27 nM.
The compound `CCc1nc(N[C@@H]2C[C@H](CO)[C@@H](O)[C@H]2O)c(-c2nc3ccccc3s2)c(=O)[nH]1` had an IC50 of 972 nM.
Same read-out and setting: as for `OC[C@H]1C[C@@H](Nc2nc(NC3CC3)ncc2-c2nc3ccccc3s2)[C@H](O)[C@@H]1O`, the figure is 470 nM.
In the case of `CSc1nc(N[C@@H]2C[C@H](CO)[C@@H](O)[C@H]2O)c(-c2nc3ccccc3s2)c(=O)[nH]1`, the midpoint of inhibition, the IC50, lay at 352 nM.

System in a further data set: not listed separately
Description: Apparent permeability of the compound across pig LLC-PK1 cells. The format is ADME, cell-based, Sus scrofa.
Settings: not given
`O=c1[nH]c(N2CCCC2)nc(N[C@@H]2C[C@H](CO)[C@@H](O)[C@H]2O)c1-c1nc2ccccc2s1`: the Papp stood at 12 ×10⁻⁶ cm/s.
Regarding `C[C@@H]1CC[C@@H](Nc2nc(N3CCOCC3)[nH]c(=O)c2-c2nc3ccccc3s2)CN1`, the Papp worked out at 15 ×10⁻⁶ cm/s.
Take `O=c1[nH]c(N2CCc3ccccc3C2)nc(N[C@@H]2C[C@H](CO)[C@@H](O)[C@H]2O)c1-c1nc2ccccc2s1`: the apparent permeability coefficient (Papp) stood at 5 ×10⁻⁶ cm/s.
`O=c1[nH]c(N2CCOCC2)nc(N[C@H]2CNC[C@H](O)C2)c1-c1nc2ccccc2s1`: the apparent permeability (Papp) amounted to 9 ×10⁻⁶ cm/s.
Still for that read-out and setting: as for `O=c1[nH]c(N2CCOCC2)nc(N[C@@H]2CCCNC2)c1-c1nc2ccccc2s1`, the figure is 29 ×10⁻⁶ cm/s; as for `O=c1[nH]c(N2CCC2)nc(N[C@@H]2C[C@H](CO)[C@@H](O)[C@H]2O)c1-c1nc2ccccc2s1`, 18 ×10⁻⁶ cm/s.
As to `O=c1[nH]c(N2CCOCC2)nc(N[C@@H]2C[C@H](CO)[C@@H](O)[C@H]2O)c1-c1nc2ccccc2s1`, the apparent permeability (Papp) came to 7 ×10⁻⁶ cm/s.

The next data set deals with Receptor-type tyrosine-protein kinase FLT3 (Homo sapiens) (UniProt P36888). The data set is described as follows: Inhibition of FLT3 (unknown origin).
Sequence of Receptor-type tyrosine-protein kinase FLT3 (Homo sapiens) (P36888 whole entry): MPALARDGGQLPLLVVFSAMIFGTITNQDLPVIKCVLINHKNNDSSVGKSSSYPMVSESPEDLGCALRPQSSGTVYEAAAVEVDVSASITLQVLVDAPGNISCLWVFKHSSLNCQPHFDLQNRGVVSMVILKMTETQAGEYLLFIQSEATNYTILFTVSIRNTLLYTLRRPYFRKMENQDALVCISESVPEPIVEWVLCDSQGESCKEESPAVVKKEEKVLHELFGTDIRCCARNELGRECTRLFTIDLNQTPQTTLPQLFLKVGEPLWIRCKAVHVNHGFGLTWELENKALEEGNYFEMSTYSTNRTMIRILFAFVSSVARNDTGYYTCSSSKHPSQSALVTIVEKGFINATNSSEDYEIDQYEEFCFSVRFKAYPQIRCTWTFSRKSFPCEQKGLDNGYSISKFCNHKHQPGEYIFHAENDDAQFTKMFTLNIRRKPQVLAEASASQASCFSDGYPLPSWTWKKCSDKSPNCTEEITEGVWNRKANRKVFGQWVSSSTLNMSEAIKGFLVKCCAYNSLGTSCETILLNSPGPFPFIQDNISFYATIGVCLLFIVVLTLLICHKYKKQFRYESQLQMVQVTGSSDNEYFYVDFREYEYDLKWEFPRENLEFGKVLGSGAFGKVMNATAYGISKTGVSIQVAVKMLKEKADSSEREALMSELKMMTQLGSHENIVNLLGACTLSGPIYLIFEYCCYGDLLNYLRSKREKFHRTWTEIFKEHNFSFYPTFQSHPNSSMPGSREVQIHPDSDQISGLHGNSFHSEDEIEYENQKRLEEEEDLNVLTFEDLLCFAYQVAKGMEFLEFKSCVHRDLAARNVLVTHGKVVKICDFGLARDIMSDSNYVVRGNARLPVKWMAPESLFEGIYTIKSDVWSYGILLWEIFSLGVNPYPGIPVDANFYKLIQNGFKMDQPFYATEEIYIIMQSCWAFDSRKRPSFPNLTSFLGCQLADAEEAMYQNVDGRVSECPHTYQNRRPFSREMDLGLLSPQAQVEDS
Settings: not given
For `O=c1[nH]c(N2CCc3ccccc3C2)nc(N[C@@H]2C[C@H](CO)[C@@H](O)[C@H]2O)c1-c1nc2ccccc2s1`, the inhibition result is “Active”.

As a reminder, the IC50 is the concentration that gives 50% inhibition. As a reminder, the bioavailability is the share of a dose that reaches the circulation, judged against a reference dose that is usually intravenous. A low value points to little systemic uptake. Broadly, the solubility (kinetic) is the concentration staying in solution when a stock, usually in DMSO, is diluted into the medium. As usually defined, the clearance is the rate of elimination divided by the concentration. A higher clearance goes with efficient removal. A word on the Papp: it is a coefficient for how fast a substance crosses the barrier.

(Values after ChEMBL document CHEMBL3621203, “Discovery and Structure Enabled Synthesis of 2,6-Diaminopyrimidin-4-one IRAK4 Inhibitors” (ACS Med Chem Lett, 2015).)
